Results taken from patent US6261760A, “Regulation of the cell cycle by sterols” (priority 1999, dated 2001).
“Also recorded” adds a separate entry of the source. Like-named read-outs stand apart in the source and are kept apart here. *1 amine or outer side, *2 acyl side, *3 side chain or, on linkers, in order; H or OH if unused. Where a SMILES comes first, the peptide text is derived from it. Bridges are numbered along the chain shown (N, C = ends). Roman numbers before positions name the chains, in order. [ ]: non-standard residue; d: D form. Actinocin(9to1) = Cc1c2oc3c(C)ccc(C(=O)[*:1])c3nc-2c(C(=O)[*:2])c(N)c1=O; NMeV = CN[C@H](C(=O)O)C(C)C; Nle = CCCC[C@H](N)C(=O)O; Sar = CNCC(=O)O

Columns and labels:
[1] = test system: LDL FC uptake by fibroblast monolayers; test: Transfer of LDL-derived 3H-FC into fibroblast monolayers with metabolic inhibitors (Example 2); type: cell-based, human; set-up: Emax: dose or concentration left out as unconfirmed; details: for effect on uptake of 3H-FC from LDL: brefeldin A, vinblastine, taxol, nocodazole, NEM 2 mM; for inhibition at higher concentration: 100 mM (monensin: up to 100 mM)
caveolin mRNA = test: Caveolin mRNA levels (Northern blot)
[2] = test system: intracellular FC transport to the cell surface in fibroblast monolayers; test: Transfer of intracellular 3H-FC to the cell surface (cholesterol oxidase); type: cell-based, human; details: in words
Procedure: This assay utilized the finding (see Example 1) that only FC in the caveolar fraction of the plasma membrane fraction was modified by cholesterol oxidase in unfixed fibroblast monolayers.
The rate at which intracellular LDL-derived ^3 H-FC became accessible at the cell surface was measured as follows. Cell monolayers were labeled with ^3 H-FC LDL under the conditions shown for each experiment. Unbound and adsorbed LDL were removed as described above. In some experiments metabolic inhibitors of different transport steps were then added for 30 min at 15° C. […] Cholesterol oxidase (Boehringer-Manheim, Indianapolis, Ind., USA) was added in PBS to a final concentration of 1 U ml^-1. Incubation was for 4 h at 0° C. The cells were washed with ice-cold PBS, and extracted with 0.1 N NAOH. Cell total lipid was extracted with chloroform-methanol (1:1 v/v). […] .
Fibroblast monolayers were prelabeled with FC-labeled LDL for 2 min at 31° C. Medium and surface-bound labeled LDL were removed as described above. The cells were incubated with inhibitors of intracellular transport for 30 min at 15° C. Movement of FC label to the cell surface remained negligible (FIG. 11). The cells were brought to 31° C. for 15 min, and then cooled on wet ice. ^3 H-FC transfer to the cell surface (in the presence and absence of inhibitor) was assayed with cholesterol oxidase as described above.

[3] = test system: LDL FC uptake by fibroblast monolayers; test: Effects of metabolic inhibitors on uptake of 3H-cholesterol from LDL (Example 1); details: for effect on LDL FC uptake: in words
[4] = test system: LDL FC uptake by fibroblast monolayers; details: for effect on LDL FC uptake: in words
fibroblasts = details: cited from earlier work
fibroblast monolayers = test: FC efflux from fibroblast monolayers (3H-FC label); type: cell-based, human; details: in words
Procedure: Fibroblast monolayers were equilibrated with ^3 H-FC-labeled native plasma or with isolated ^3 H-labeled LDL, as specified for each experiment. Following incubation, the dishes were washed with albumin-complete PBS and then (×4) with complete PBS. They were then incubated for 3 min with unlabeled plasma or lipoprotein fractions and the rate of appearance of radioactivity in the medium determined. Samples of medium ([…]) were immediately chilled in ice water and centrifuged (10 min, 2000×g) at 0-2° C. ^3 H-cholesterol radioactivity in the supernatant was either assayed directly, or fractionated by agarose gel electrophoresis. FC efflux was linear as previously reported (Kawano et al., Biochemistry, 32: 5025-5028 (1993)).
For electrophoresis, […] portions of labeled medium were added to strips of 0.75% w/v agarose in 0.025 M barbital buffer (pH 8.6) and separated as previously described (Fielding et al., Biochemistry, 30: 8551-8557 (1991)). 2.5 mm gel fractions were then collected, and radioactivity measured. The location of major lipoprotein classes was determined from strips run simultaneously with whole native plasma equilibrated (60 min, 37° C.) With ^3 HFC.
Rates of FC influx and efflux between medium and fibroblast monolayers preincubated for 24 h with 7-80% native human plasma in DMEM were determined. Cells equilibrated in 80% compared to 7% v/v plasma contained 35-40% more total cholesterol but only 10-15% more FC. In 50% v/v plasma, cholesteryl ester levels were lower than in 80% plasma but FC levels were almost the same. Rates of transfer of FC between the cells and their extracellular medium were determined for each plasma dilution. […] was measured as the rate of transfer of ^3 H-FC radioactivity from labeled native plasma to unlabeled cells. […] was determined as the rate of transfer of radioactivity from uniformly labeled cells to unlabeled native plasma medium.

[5] = test system: LDL-receptor deficient cells (GM 2000 line); test: FC transfer from LDL to LDL receptor-deficient cells (GM 2000); type: cell-based
[6] = test system: normal human skin fibroblasts; test: Cell synchronization by aphidicolin (flow cytometry); type: cell-based
Procedure: Normal human skin fibroblasts were cultured in 10% fetal calf serum in Dulbecco's modified Eagles medium (DMEM). […] After 3 days, dishes were incubated with aphidicolin (4 μg/ml)(CalBiochem, San Diego, Calif.) to inhibit DNA polymerase, leading to cell arrest immediately before S-phase (Tobey et al. (1988) Expt. Cell Res. […]). After 24 h incubation with aphidicolin, the inhibitor was removed for a further 12 h, then restored for a `double block` at 8 μg/ml for a further 24 h (Sourlingas et al. (1996) Anal. Biochem. 234:104-107). After final removal from inhibitor into 10% serum-DME medium, the cells during incubation over the next 32 h at 37° C. […]
After 3 days, dishes were incubated with aphidicolin (4 μg/ml)(CalBiochem, San Diego, Calif.) to inhibit DNA polymerase, leading to cell arrest immediately prior to DNA synthesis (S-phase) (Tobey et al. (1988) Exptl. Cell Res. 179: 400-416, Sourlingas and Sekeri-Pataryas (1996) Anal. Biochem. 234: 104-107.). […] Cell synchronization was assessed by flow cytometry using the cell permeable stain Hoechst 33342 (Molecular Probes, Eugene, Oreg.)(Haas-Kogan et al. (1995) EMBO J. 14: 461-472.). […] Samples were analysed on a FACStar Plus (Becton Dickinson, San Jose, Calif.). Data was analysed using Lysis II software (Becton Dickinson). […]

COC1=CC(C)=CC(C)C(O)C(C)CC(C)=CC=CC(OC)C(C(C)C(O)C(C)C2(O)CC(O)C(C)C(C(C)C)O2)OC1=O (single isomer, unassigned) [Bafilomycin A1]
Emax ([1]; Homo sapiens, Fibroblast, read-out: maximal effect on LDL-FC uptake): 30%

CCCC[C@@H](C=O)NC(=O)[C@H](CC(C)C)NC(=O)[C@H](CC(C)C)NC(C)=O [ALLN] (Ac-Leu-Leu-[Nle]-aldehyde)
effect on caveolin mRNA levels / caveolin gene expression (caveolin mRNA; 25 μM ALLN, 7% or 80% v/v plasma): superinhibited caveolin mRNA levels regardless of LDL-FC; also recorded: superinhibited the expression of the caveolin gene; also recorded: strongly inhibited caveolin mRNA levels even below the level expressed in cells equilibrated in 7% v/v plasma; also recorded: completely prevented the activation of caveolin mRNA levels observed in 80% v/v plasma

C[C@H]1CCC/C=C/[C@@H]2C[C@H](O)C[C@H]2[C@H](O)/C=C/C(=O)O1 [Brefeldin A]
effect on uptake of 3H-FC from LDL [1]: without effect | effect on transport of intracellular 3H-FC to the cell surface [2]: unaffected

CCN(CC)CCCC(C)Nc1ccnc2cc(Cl)ccc12 (stereo not drawn) [Chloroquine]
effect on LDL FC uptake [3]: no effect

C=C1C(C)C2C(Cc3ccccc3)NC(=O)C23C(OC(C)=O)/C=C/C(C)(O)C(=O)C(C)CC=CC3C1O (stereo not drawn) [Cytochalasin D]
inhibition at higher concentration ([1]; listed as Cytochalasin): No greater inhibition | inhibition at higher concentration ([1]; listed as cytochalasin D): no increase in inhibition | effect on transport of intracellular 3H-FC to the cell surface [2]: no effect

C=C[C@@]1(C)CC(=O)[C@]2(O)[C@@]3(C)[C@@H](O)CCC(C)(C)[C@@H]3[C@H](O)[C@H](OC(C)=O)[C@@]2(C)O1 [Forskolin]
effect on LDL FC uptake [4]: no effect | effect on transfer of newly-synthesized cholesterol to plasma membrane (fibroblasts): stimulated

CC(C)Cn1c(=O)n(C)c(=O)c2[nH]cnc21 [IBMX, isobutyl methylxanthine]
activity ([4]; fibroblast monolayers, 60 min): 111% | effect on LDL FC uptake [4]: no effect | effect on transfer of newly-synthesized cholesterol to plasma membrane (fibroblasts): stimulated

O=[N+]([O-])[O-].[K+] [KNO3]
initial rate of efflux of FC from prelabeled cells to plasma (fibroblast monolayers): increased several-fold | effect on transport of intracellular 3H-FC to the cell surface [2]: inhibited the return of FC to the cell surface, but less effectively than did nocodazole | inhibition of the uptake of free cholesterol from LDLs ([3]; FIG. 8): > 80% | time course of inhibition of LDL FC uptake ([3]; NEM: first 10-15 min, KNO3: 50 mM, data not shown): comparable time course

CC[C@@]1([C@@H]2O[C@@H]([C@H]3O[C@@](O)(CO)[C@H](C)C[C@@H]3C)C[C@@H]2C)CC[C@H]([C@]2(C)CC[C@]3(C[C@H](O)[C@@H](C)[C@@H]([C@@H](C)[C@@H](OC)[C@H](C)C(=O)O)O3)O2)O1 [Monensin]
effect on selective uptake of FC from LDL in GM2000 cells ([5]; in words): Comparable results | inhibition at higher concentration [1]: no increase in inhibition | effect on uptake of 3H-FC from LDL [1]: effective in reducing the selective uptake of FC from LDL

[NH4+].[O]=[V](=[O])[O-] [NH4 -vanadate]
effect on LDL FC uptake [3]: without effect

[N-]=[N+]=[N-].[Na+] [Na-azide]
effect on LDL FC uptake [3]: without effect

COC(=O)Nc1nc2ccc(C(=O)c3cccs3)cc2[nH]1 [Nocodazole]
effect on uptake of 3H-FC from LDL [1]: without effect | effect on transport of intracellular 3H-FC to the cell surface [2]: reduced

CC[C@]1(O)C[C@@H]2CN(CCc3c([nH]c4ccccc34)[C@@](C(=O)OC)(c3cc4c(cc3OC)N(C)[C@H]3[C@@](O)(C(=O)OC)[C@H](OC(C)=O)[C@]5(CC)C=CCN6CC[C@]43[C@@H]65)C2)C1 [Vinblastine]
effect on uptake of 3H-FC from LDL [1]: without effect | effect on transport of intracellular 3H-FC to the cell surface [2]: unaffected

Cc1c2oc3c(C)ccc(C(=O)N[C@@H]4C(=O)N[C@H](C(C)C)C(=O)N5CCC[C@H]5C(=O)N(C)CC(=O)N(C)[C@@H](C(C)C)C(=O)O[C@@H]4C)c3nc-2c(C(=O)N[C@@H]2C(=O)N[C@H](C(C)C)C(=O)N3CCC[C@H]3C(=O)N(C)CC(=O)N(C)[C@@H](C(C)C)C(=O)O[C@@H]2C)c(N)c1=O [actinomycin, actinomycin D] (I: T[dV]P[Sar][NMeV] / II: T[dV]P[Sar][NMeV]; ester I:1-I:C, II:1-II:C; linker I:N-II:N via Actinocin(9to1))
t1/2 of decrease in caveolin mRNA levels (caveolin mRNA; actinomycin 2.5 μg ml^-1, activated and baseline cells, n=4): 8.0 ± 1 h | caveolin mRNA level relative to total RNA (caveolin mRNA; baseline cells, 8 h with actinomycin, 37° C.): 0.52

C[C@@]1(CO)[C@H](O)CC[C@@]2(C)[C@H]1CC[C@H]1C[C@@H]3C[C@@]12CC[C@]3(O)CO [aphidicolin]
cells synchronized to enter S-phase ([6]; Example 4, following removal of inhibitor): ~ 85% | cells in synchrony at the beginning of S phase ([6]; Example 5, 4 then 8 μg/ml aphidicolin): 83.9±3.1%

CC(=O)O[C@H]1C(=O)[C@@]2(C)[C@H]([C@H](OC(=O)c3ccccc3)[C@]3(O)C[C@H](OC(=O)[C@H](O)[C@@H](NC(=O)c4ccccc4)c4ccccc4)C(C)=C1C3(C)C)[C@]1(OC(C)=O)CO[C@@H]1C[C@@H]2O [taxol]
effect on uptake of 3H-FC from LDL [1]: without effect

heparin
inhibition of LDL FC influx ([5]; GM 2000 cells, 0.1 mg/ml heparin, LDL 150 Fg FC ml^-1, 10 min): Approximately 80% | inhibition of LDL FC influx ([3]; normal fibroblasts, 0.1 mg/ml heparin, LDL 150 Fg FC ml^-1, 10 min): Approximately 80%
